Source: patent publication US8802675B2, “Neuroprotective multifunctional compounds and pharmaceutical compositions comprising them” (priority 2009, dated 2014)
Values joined by “and” are separate entries in the source; they are usually repeats but may differ in a detail not shown here. Equal entries are not always repeated. Where two headings read alike, the source gives them in different places.

How the values were obtained:
rat brain MAO-A = target: T1, rat brain MAO-A (Rattus norvegicus, UniProt P21396); test: biochemical; conditions: IC50 MAO-A, rat brain homogenate in vitro; mean SEM, n=3 in triplicates
T1 construct: from tissue; host or cells: rat brain homogenate
T1 sequence (P21396 1-526): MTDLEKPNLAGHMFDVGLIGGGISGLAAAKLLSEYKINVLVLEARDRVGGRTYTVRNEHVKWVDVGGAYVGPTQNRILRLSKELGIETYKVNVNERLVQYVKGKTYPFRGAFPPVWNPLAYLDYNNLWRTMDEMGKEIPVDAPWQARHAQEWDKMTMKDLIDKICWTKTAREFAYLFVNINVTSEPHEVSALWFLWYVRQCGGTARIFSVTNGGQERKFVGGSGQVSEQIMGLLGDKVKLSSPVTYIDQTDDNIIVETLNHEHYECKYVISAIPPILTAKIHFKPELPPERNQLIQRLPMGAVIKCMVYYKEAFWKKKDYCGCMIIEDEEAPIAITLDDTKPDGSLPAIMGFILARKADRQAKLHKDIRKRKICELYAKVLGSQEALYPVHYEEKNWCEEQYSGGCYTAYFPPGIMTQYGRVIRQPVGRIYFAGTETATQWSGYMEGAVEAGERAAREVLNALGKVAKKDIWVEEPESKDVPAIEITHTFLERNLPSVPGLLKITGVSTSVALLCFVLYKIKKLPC
Experimental: (§1) Rats were decapitated and the brains were quickly taken into a pre-weighted ice-cold sucrose buffer (10 mM Tris-HCl buffer, pH 7.4, containing 0.32 M sucrose), and their weights were measured. The brains were homogenized at 0-4° C. in 0.32 M sucrose (one part tissue to 20 parts sucrose) in a Teflon glass homogenizer. The resultant homogenates were used to determine MAO activity. Protein concentration was determined with Bradford reagent at 595 nm, using bovine serum albumin as a standard.
(§2) The activity of MAO-A and MAO-B were determined by the adapted method of Tipton & Youdim (Tipton et al. 1983). Briefly, the multifunctional compound tested was added to a suitable dilution of the enzyme preparation (70 μg MAO-B and 150 μg MAO-A) in 0.05 M phosphate buffer (pH 7.4). The mixture was incubated together with 0.05 μM 1-deprenyl, a specific inhibitor of MAO-B (for determination of MAO-A activity in the presence of the test compound) or 0.05 μM clorgyline a specific inhibitor of MAO-A (for determination of MAO-B activity). […] The reaction was stopped with 2M ice-cold citric acid, and the radioactive metabolites (5-hydroxytryptaldehyde and phenylacetaldehyde) were extracted by addition of 2 ml of ethylacetate/toluene (1:1 vol/vol). The radioactivity contained in the organic phase was determined by liquid-scintillation counting in cpm units.
(§3) MAO-A and MAO-B activities were determined in rat brain homogenate in vitro following incubation with varying concentrations of the test compounds.
(§4) The results are the mean SEM, n=3 in triplicates.

rat brain MAO-B = target: T2, rat brain MAO-B (Rattus norvegicus, UniProt P19643); test: biochemical; conditions: IC50 MAO-B, rat brain homogenate in vitro; mean SEM, n=3 in triplicates
T2 construct: from tissue; host or cells: rat brain homogenate
T2 sequence (P19643 1-520): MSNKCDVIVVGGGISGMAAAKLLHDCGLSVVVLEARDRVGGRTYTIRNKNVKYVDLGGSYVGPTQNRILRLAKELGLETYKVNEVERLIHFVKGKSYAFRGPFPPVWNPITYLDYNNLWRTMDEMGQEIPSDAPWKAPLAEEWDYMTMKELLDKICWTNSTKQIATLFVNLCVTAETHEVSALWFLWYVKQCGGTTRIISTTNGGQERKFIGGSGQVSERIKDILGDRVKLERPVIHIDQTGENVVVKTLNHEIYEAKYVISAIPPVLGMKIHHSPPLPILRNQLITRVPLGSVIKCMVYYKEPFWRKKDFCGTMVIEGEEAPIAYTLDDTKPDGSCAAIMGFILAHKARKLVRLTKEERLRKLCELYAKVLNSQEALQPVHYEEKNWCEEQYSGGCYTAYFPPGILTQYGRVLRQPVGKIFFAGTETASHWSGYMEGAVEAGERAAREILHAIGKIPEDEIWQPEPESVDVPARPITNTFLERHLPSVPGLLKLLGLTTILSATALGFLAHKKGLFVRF
Experimental: as §1, §2, §3, §4

[1] = target: T3, butyrylcholinesterase (BuChE) (Rattus norvegicus, UniProt Q9JKC1); test: Butyrylcholinesterase inhibition in rat brain homogenates (Ellman); type: biochemical; conditions: mean SEM, n=3 in triplicates
T3 construct: total cholinesterase (ChE) and butyrylcholinesterase (BuChE) activities in rat brain homogenates; from tissue; host or cells: brain homogenate (10% w/v) of adult Wistar rats
Experimental: (§5) Cholinesterase activity was determined in rat brain homogenate following incubation with varying concentrations of the multifunctional pro-chelators of the invention (also referred to herein as “carbamates”).
(§6) Ellman's colorimetric method was adapted for determination of total cholinesterase (ChE) and butyrylcholinesterase (BuChE) activities in rat brain homogenates. Brain tissue from adult Wistar rats was homogenized at 2% w/v (or 10% w/v, for BuChE) in 0.1 M sodium phosphate buffer, pH 7.4, with added NaCl 58.5 g/l and Triton X-100 0.05% v/v. Aliquots of homogenate (20 μl) were incubated with the test compounds for designed time intervals in phosphate buffer pH 7.4, before addition of 5,5′-dithiobis(2-nitrobenzoic) acid and either 1 mM acetylthiocholine iodide or 10 mM butyrylthiocholine iodide (Sigma, St. Louis, Mo.). The reaction was run at 37° C. in a final volume of […] in 96-well microplates and was followed at 412 nm for 5 min with a plate reader. In every experiment, cholinesterase-independent (nonspecific) substrate hydrolysis was determined by including one experimental group treated with tacrine 30 μM. Appropriate tissue and reagent blanks were also included. Reaction velocities were determined in three or four replicates per condition; these were averaged and expressed as percent activity relative to control (solvent), after subtracting the rate of nonspecific hydrolysis.
(§7) The results are the mean SEM, n=3 in triplicates. ND—not determined.

[2] = target: T4, rat brain cholinesterase (total ChE) (Rattus norvegicus, UniProt P37136); test: Kinetics of irreversible cholinesterase inhibition (Kitz-Wilson); type: biochemical
T4 construct: rows headed: Ki (dissociation constant for EI); other: rat brain total ChE; mean of 3-4 experiments; k+2 (carbamylation rate constant); other: from ki; rate of carba
T4 sequence (P37136 32-614): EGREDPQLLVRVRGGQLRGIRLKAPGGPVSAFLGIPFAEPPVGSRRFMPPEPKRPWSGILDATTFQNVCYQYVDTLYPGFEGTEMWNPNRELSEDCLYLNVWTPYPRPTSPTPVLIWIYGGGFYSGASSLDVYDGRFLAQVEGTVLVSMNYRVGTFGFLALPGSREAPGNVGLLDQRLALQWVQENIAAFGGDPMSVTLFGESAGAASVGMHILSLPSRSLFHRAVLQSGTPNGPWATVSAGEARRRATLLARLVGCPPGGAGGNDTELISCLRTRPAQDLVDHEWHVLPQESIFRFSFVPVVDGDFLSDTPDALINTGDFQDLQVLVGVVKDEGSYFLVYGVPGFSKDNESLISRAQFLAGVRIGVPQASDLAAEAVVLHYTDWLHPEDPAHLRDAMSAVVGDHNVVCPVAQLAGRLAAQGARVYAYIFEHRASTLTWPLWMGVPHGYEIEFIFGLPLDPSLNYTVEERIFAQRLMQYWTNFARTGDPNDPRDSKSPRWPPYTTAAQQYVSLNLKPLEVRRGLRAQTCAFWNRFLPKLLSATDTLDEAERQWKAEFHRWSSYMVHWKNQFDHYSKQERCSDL
Experimental: To determine kinetic constants of irreversible inhibition, cholinesterase from rat brain homogenates was incubated with the multifunctional compounds of the invention for designed time intervals in phosphate buffer pH 7.4.
The residual cholinesterase activity was immediately measured with the Ellman's colorimetric method after addition of 5,5′-dithiobis(2-nitrobenzoic) acid and 1 mM acetylthiocholine iodide. The inhibition kinetics were assessed according to Kitz-Wilson equation:
[formula] wherein: E represents the enzyme; I represents the intact carbamate (inhibitor); EI is the initial reversible enzyme complex; E* is the carbamylated enzyme; Ki represents the dissociation constant for EI; k+2 is the carbamylation rate constant and k+3 is the decarbamylation rate constant; kapp is the pseudo-first-order inhibition rate constant; ki, the second-order rate inhibition constant, is approximated by k+2/Ki. Under experimental condition [I]>>[E0].
According to equation (2), the logarithm of the ratio of the residual cholinesterase activity (E) and the initial cholinesterase activity (E0) is plotted against the time of incubation. The slopes of the lines representing kapp were determined by linear regression.
The slopes of the lines represent the pseudo-first-order inhibition rate constant (kapp) determined from linear regression analysis. […] The carbamylation rate constant (k+2) was obtained from the y-intercept, and the dissociation constant ([…] was obtained from the slope of the line multiplied by k+2 as described in Materials and Methods.
From these lines, the values of kapp were calculated based on Equation (2) of the Kitz-Wilson equations (see Material and Methods). […] The carbamylation rate constant k+2 is a measure of inactivation of ChE.

[3] = target: T5, total cholinesterase (ChE) (Rattus norvegicus, UniProt P37136); test: Total cholinesterase inhibition in rat brain homogenates (Ellman); type: biochemical; conditions: read-out: percent inhibition Total ChE
T5 sequence (P37136 32-614): T4 sequence (P37136 32-614)
Experimental: as §5, §6, §7

[4] = test system: rat brain cholinesterase (total ChE); conditions: cited from earlier work

T3 sequence (Q9JKC1 24-597): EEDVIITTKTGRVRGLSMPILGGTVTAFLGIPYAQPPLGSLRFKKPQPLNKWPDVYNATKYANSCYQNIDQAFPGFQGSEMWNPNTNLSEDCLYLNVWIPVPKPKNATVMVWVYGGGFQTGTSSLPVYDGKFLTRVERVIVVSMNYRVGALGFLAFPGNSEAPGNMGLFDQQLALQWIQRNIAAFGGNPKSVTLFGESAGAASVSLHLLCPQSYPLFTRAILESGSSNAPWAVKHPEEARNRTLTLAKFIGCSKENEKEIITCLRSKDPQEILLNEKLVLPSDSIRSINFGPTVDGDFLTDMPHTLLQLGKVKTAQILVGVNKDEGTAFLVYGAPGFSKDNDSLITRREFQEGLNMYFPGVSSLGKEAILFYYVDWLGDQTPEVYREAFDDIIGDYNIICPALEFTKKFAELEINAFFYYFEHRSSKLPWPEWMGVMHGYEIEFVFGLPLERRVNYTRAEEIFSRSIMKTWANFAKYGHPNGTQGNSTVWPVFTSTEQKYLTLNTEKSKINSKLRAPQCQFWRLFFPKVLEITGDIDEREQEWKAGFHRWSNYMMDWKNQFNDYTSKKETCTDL

SMILES | IC50 (rat brain MAO-A) | IC50 (rat brain MAO-B) [nM] | IC50 [1] [nM] | potency in inhibiting ChE relative to rivastigmine ([2]; from ki) | kinact ([2]; pH 7.4, read-out: k+2 (carbamylation rate constant)) [s⁻¹] | kinact/KI ([2]; pH 7.4, read-out: ki (second-order rate inhibition constant, approximated by k+2/Ki)) [M⁻¹ s⁻¹] | inhibition at 1 µM [3] [%] | k+2 (carbamylation rate constant) ([4]; Data from ref.) | ki (second-order rate inhibition constant) ([4]; Data from ref.) | k+2 (carbamylation rate constant) ([4]; Data from ref., listed as rivastigmine) [min⁻¹] | Ki ([4]; rivastigmine, data from ref., read-out: Ki, affinity to total ChE) [nM]
C#CCN(C)Cc1ccc(OC(=O)N2CCCCC2)c2ncccc12 [Compound 6, 5-((methyl(propargyl)amino)methyl)quinolin-8-yl piperidine-1-carboxylate] | 4.7 to 20 nM and 4.7 nM | 1860 | 45700 ± 5940 | as potent | 0.00117 | 77.3 |  |  |  |  | 
CCN(C)C(=O)Oc1cccc([C@H](C)N(C)C)c1 [Rivastigmine, (S)-N-ethyl-N-methyl-3-[1-(dimethylamino)ethyl]-phenyl carbamate] |  |  |  |  |  |  | 62 | 0.25^b min^−1 | 4.54 × 10^3b M^−1 min^−1 | 0.25 | 55000
